{
  "source": "patent US20040229771A1",
  "about": "“Method of reducing decline of or preserving residual renal function” (priority 2003, published 2004)",
  "origin": "cited, not measured here",
  "tested_on": "cell culture",
  "conditions": "cell culture experiments, reference (2)",
  "data": [
    {"compound": "O=CC(=O)C=CC(O)CO", "note": "(stereo not shown) [3,4-DGE, 3,4-dideoxyglucosone-3-ene]", "values": [
      {"measurement": "immunosuppressive effects", "value": "immunosuppressive effects"}
    ]}
  ]
}
